Measured values: ChEMBL document CHEMBL5665443, “Enzyme Inhibitor Single Concentration assay results for EUbOPEN Chemogenomics Library” (2024)

Experiments:
[1] = target: Methyl-CpG-binding domain protein 4 (Homo sapiens) (UniProt O95243); settings: Hit No;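 note: MBD4 activity read as fluorescence at 594 nm from cleavage and release of a quenched duplex DNA oligonucleotide, with APE1 coupled to incise the strand and raise turnover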
Description: Inhibition of MBD4 by quantifying inhibition of MBD4-mediated cleavage and dissociation of quenched duplex DNA oligonucleotides, measured as fluorescence at 594 nm. To generate a functional strand incision and increase turn-over this assay is coupled to APE1.

[2] = target: Endonuclease 8-like 1 (Homo sapiens) (UniProt Q96FI4); settings: Hit No;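 note: fluorescence at 594 nm from quenched duplex DNA oligonucleotides released by NEIL1 cleavage and strand separation, reported as reduction of this enzyme activity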
Description: Inhibition of NEIL1 by quantifying inhibition of NEIL1-mediated cleavage and dissociation of quenched duplex DNA oligonucleotides, measured as fluorescence at 594 nm.

[3] = target: T1, Endonuclease 8-like 2 (Homo sapiens) (UniProt Q969S2); settings: Hit No;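 note: fluorescence at 594 nm reports NEIL2 cutting and release of a quenched double-stranded DNA oligo substrate, reduced signal read as inhibition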
T1 sequence (whole entry): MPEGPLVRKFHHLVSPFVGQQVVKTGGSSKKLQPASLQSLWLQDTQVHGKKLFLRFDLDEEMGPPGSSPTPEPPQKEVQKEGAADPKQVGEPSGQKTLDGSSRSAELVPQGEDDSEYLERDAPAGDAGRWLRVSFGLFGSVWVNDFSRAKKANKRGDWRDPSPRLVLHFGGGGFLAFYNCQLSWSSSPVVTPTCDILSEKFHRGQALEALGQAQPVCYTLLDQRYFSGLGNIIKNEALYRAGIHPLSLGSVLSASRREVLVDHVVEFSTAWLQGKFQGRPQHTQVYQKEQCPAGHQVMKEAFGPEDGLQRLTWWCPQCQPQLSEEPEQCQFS
Description: Inhibition of NEIL2 by quantifying inhibition of NEIL2-mediated cleavage and dissociation of quenched duplex DNA oligonucleotides, measured as fluorescence at 594 nm.

[4] = target: T2, Endonuclease III-like protein 1 (Homo sapiens) (UniProt P78549); settings: Hit No;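 note: enzyme assay tracking NTHL1 cutting and release of a quenched double-stranded DNA oligo substrate, read as fluorescence at 594 nm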
T2 sequence (whole entry): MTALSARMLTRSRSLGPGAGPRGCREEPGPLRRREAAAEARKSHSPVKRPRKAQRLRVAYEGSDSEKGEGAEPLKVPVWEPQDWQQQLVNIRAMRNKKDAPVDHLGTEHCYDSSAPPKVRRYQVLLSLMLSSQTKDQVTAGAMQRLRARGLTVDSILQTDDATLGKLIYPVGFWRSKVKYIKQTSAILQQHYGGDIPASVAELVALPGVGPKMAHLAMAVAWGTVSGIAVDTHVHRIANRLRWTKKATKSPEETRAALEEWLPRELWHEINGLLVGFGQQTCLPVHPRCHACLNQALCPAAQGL
Description: Inhibition of NTHL1 by quantifying inhibition of NTHL1-mediated cleavage and dissociation of quenched duplex DNA oligonucleotides, measured as fluorescence at 594 nm.

[5] = target: N-glycosylase/DNA lyase (Homo sapiens) (UniProt O15527);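 note: OGG1 cleavage of a quenched duplex DNA oligonucleotide, coupled to APE1 for strand incision, read as fluorescence at 594 nm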
Description: Inhibition of OGG1 by quantifying inhibition of OGG1-mediated cleavage and dissociation of quenched duplex DNA oligonucleotides, measured as fluorescence at 594 nm. To generate a functional strand incision and increase turn-over this assay is coupled to APE1.

[6] = target: T3, Single-strand selective monofunctional uracil DNA glycosylase (Homo sapiens) (UniProt Q53HV7); settings: Hit No;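 note: enzymatic SMUG1 assay coupled with APE1, reading fluorescence at 594 nm released when a quenched double-stranded DNA oligonucleotide substrate is cleaved and separated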
T3 sequence (whole entry): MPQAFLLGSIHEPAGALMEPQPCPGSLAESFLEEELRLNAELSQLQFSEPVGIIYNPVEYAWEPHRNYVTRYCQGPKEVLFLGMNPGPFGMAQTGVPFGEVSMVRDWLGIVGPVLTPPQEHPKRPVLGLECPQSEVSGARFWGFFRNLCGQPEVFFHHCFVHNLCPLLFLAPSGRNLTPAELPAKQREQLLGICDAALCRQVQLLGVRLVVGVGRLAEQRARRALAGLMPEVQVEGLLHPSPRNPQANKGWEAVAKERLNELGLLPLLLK
Description: Inhibition of SMUG1 by quantifying inhibition of SMUG1-mediated cleavage and dissociation of quenched duplex DNA oligonucleotides, measured as fluorescence at 594 nm. To generate a functional strand incision and increase turn-over this assay is coupled to APE1.

[7] = target: G/T mismatch-specific thymine DNA glycosylase (Homo sapiens) (UniProt Q13569); settings: Hit No;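 note: human TDG cleavage of quenched duplex DNA oligonucleotides coupled to APE1, strand release read as fluorescence at 594 nm, inhibition of TDG activity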
Description: Inhibition of TDG by quantifying inhibition of TDG-mediated cleavage and dissociation of quenched duplex DNA oligonucleotides, measured as fluorescence at 594 nm. To generate a functional strand incision and increase turn-over this assay is coupled to APE1.

[8] = target: Uracil-DNA glycosylase (Homo sapiens) (UniProt P13051); settings: Hit No;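 note: UNG excision on a quenched double-stranded DNA oligo probe, with APE1 added for strand incision and turnover, read as fluorescence at 594 nm as strands separate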
Description: Inhibition of UNG by quantifying inhibition of UNG-mediated cleavage and dissociation of quenched duplex DNA oligonucleotides, measured as fluorescence at 594 nm. To generate a functional strand incision and increase turn-over this assay is coupled to APE1.

[9] = Compound Concentration 1.0 uM, Hit No
[10] = Compound Concentration 10.0 uM, Hit No

Sequence of N-glycosylase/DNA lyase (Homo sapiens) (O15527 whole entry): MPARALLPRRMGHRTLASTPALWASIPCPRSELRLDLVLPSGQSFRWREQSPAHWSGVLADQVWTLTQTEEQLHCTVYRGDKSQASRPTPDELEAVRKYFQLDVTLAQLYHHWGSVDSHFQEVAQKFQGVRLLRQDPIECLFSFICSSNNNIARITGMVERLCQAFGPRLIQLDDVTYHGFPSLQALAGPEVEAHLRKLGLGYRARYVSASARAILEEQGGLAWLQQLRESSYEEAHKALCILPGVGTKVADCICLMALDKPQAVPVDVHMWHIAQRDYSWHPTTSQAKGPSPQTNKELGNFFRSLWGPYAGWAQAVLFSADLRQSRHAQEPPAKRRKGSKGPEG
Sequence of Uracil-DNA glycosylase (Homo sapiens) (P13051 whole entry): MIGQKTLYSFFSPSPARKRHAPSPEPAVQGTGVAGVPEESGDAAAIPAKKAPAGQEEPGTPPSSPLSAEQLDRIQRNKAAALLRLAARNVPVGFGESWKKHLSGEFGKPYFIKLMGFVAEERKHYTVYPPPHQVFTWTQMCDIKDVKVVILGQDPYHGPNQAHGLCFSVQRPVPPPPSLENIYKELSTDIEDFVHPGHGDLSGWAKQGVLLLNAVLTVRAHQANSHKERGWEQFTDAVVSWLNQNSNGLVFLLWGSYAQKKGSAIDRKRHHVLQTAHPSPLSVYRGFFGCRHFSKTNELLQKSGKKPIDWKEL
Sequence of Endonuclease 8-like 1 (Homo sapiens) (Q96FI4 whole entry): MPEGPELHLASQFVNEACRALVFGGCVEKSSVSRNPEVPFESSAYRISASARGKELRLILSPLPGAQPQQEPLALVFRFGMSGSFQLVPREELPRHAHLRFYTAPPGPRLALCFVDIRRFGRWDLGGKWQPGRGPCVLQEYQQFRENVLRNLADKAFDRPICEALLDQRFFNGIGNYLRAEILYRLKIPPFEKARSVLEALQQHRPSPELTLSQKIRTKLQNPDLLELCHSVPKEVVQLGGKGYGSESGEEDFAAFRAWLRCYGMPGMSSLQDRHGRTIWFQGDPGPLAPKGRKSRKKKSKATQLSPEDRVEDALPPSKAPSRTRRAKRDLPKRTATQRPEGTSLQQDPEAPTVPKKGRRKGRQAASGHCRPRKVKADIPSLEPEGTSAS
Sequence of Methyl-CpG-binding domain protein 4 (Homo sapiens) (O95243 whole entry, the tested form may be a part): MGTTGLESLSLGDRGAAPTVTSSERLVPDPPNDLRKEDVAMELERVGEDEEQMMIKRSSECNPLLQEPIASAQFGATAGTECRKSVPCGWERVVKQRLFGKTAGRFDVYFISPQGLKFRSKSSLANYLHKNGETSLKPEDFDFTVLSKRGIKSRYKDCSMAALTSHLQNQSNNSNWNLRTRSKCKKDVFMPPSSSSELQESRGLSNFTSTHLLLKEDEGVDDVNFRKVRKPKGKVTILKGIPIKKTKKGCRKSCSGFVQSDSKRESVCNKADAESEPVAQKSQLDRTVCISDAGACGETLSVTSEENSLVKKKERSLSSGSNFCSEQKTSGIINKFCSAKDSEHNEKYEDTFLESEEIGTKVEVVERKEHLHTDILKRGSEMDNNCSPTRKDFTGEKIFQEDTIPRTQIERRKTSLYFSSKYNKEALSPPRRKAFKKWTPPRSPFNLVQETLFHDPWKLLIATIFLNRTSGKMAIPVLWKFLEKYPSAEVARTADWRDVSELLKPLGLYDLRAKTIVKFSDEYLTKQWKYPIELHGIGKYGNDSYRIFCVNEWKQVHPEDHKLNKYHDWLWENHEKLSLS
Sequence of G/T mismatch-specific thymine DNA glycosylase (Homo sapiens) (Q13569 whole entry): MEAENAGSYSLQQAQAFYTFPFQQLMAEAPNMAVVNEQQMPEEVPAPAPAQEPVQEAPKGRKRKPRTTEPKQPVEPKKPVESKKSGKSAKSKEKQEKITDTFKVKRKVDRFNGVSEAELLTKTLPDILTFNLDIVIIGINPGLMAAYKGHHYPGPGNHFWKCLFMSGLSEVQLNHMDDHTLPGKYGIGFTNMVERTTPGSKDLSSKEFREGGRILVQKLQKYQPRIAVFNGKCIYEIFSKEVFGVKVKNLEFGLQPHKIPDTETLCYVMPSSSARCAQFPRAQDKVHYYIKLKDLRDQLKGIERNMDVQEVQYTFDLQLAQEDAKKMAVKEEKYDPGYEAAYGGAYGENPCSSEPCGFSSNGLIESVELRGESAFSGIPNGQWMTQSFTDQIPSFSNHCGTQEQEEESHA

SMILES	inhibition ([1]; Compound Concentration 1.0 uM)	inhibition ([2]; Compound Concentration 1.0 uM)	inhibition ([3]; Compound Concentration 1.0 uM)	inhibition ([4]; Compound Concentration 1.0 uM)	inhibition [5, 9]	inhibition ([6]; Compound Concentration 1.0 uM)	inhibition ([7]; Compound Concentration 1.0 uM)	inhibition ([8]; Compound Concentration 1.0 uM)	inhibition ([1]; Compound Concentration 10.0 uM)	inhibition ([2]; Compound Concentration 10.0 uM)	inhibition ([3]; Compound Concentration 10.0 uM)	inhibition ([4]; Compound Concentration 10.0 uM)	inhibition [5, 10]	inhibition ([6]; Compound Concentration 10.0 uM)	inhibition ([7]; Compound Concentration 10.0 uM)	inhibition ([8]; Compound Concentration 10.0 uM)	inhibition ([5]; Compound Concentration 10.0 uM, Hit Yes)
CN1C(=O)[C@@H](N2CCc3c(nn(Cc4ccccc4)c3Br)C2=O)COc2ccccc21	25%	-6.27%	-4.38%	-4.24%	0.775%	3.33%	32.5%	-2.6%	–	–	–	–	–	–	–	–	–
COC(=O)/C=C/c1cccc(N(Cc2ccc(-c3ccc(N(C)C)cc3)cc2)C(=O)C2CCCCC2)c1	–	–	–	–	–	–	–	–	53.7%	-4.23%	3.34%	7.26%	7.66%	-4.57%	44.3%	-3.03%	–
Cc1cnc(-c2cc(Cl)ccc2F)cc1-n1c(=O)n(CC(N)=O)c2cnccc21	–	–	–	–	–	–	–	–	27.6%	-5.82%	-8.34%	-1.49%	1.02%	13.4%	43.1%	3.5%	–
Cc1c(NC(=O)c2cc(C(N)=O)nc3cc(F)ccc23)c(C(F)(F)F)nn1Cc1ccc(C#N)cc1	–	–	–	–	–	–	–	–	51.7%	-9.07%	8.19%	-9.83%	3.97%	19.9%	35.6%	1.44%	–
CCOC(=O)c1ccc(C#Cc2ccc3c(c2)C(C)(C)CCS3)nc1	–	–	–	–	–	–	–	–	50.8%	1.22%	2.06%	3.31%	22.7%	8.77%	98.1%	-5.12%	–
C[C@@H](c1cccc(CN)c1)n1cc(Cl)cc(C(N)=O)c1=N	–	–	–	–	–	–	–	–	72.4%	-9.23%	0.0213%	-5.89%	-2.92%	3.56%	49.3%	-0.0293%	–
C[C@H](NC(=O)c1cn(C2(C#N)CC2)cn1)C(=O)Nc1nc(-c2cccc(-c3ccn(C)n3)c2)cs1	59.5%	-5.74%	-9.67%	-7.2%	-5.28%	3.85%	51.4%	1.27%	–	–	–	–	–	–	–	–	–
CNC(=O)c1cc(C(=O)NC2CC2)cn(Cc2ccccc2)c1=O	–	–	–	–	–	–	–	–	59.4%	8.49%	-1.25%	-1.29%	10.8%	-2.99%	29.8%	-2.05%	–
C=CC(=O)Nc1ccc2[nH]c(=O)n(C3CCN(Cc4ccc(-c5ccc6c(c5)NC(=O)CO6)cc4)CC3)c2c1	–	–	–	–	–	–	–	–	22.1%	2.54%	-1.48%	-2.83%	15.8%	16.7%	30.3%	1.08%	–
CN(C)CC#Cc1ccc(OCCCc2sc(N3CCc4cccc(C(=O)Nc5nc6ccccc6s5)c4C3)nc2C(=O)O)c(F)c1	–	–	–	–	–	–	–	–	47.6%	-0.896%	-4.83%	0.0274%	–	1.49%	40.4%	1.14%	85.3%
OC(c1ccc(-c2ccc(CN3CCN(Cc4ccncc4)CC3)cc2)c(F)c1)(C(F)(F)F)C(F)(F)F	–	–	–	–	–	–	–	–	47.6%	-6.8%	-2.02%	-8.52%	-1.15%	-2.17%	64.2%	-1.04%	–
Cc1cc(OCC(=O)O)cc(C)c1Cc1ccc(O)c(C(C)C)c1	–	–	–	–	–	–	–	–	57.9%	-0.29%	4.61%	7.26%	20.6%	9.54%	63%	2.02%	–
O=C(O)c1ccnc(N2CC(O)(c3ccc(OCc4c(-c5c(Cl)cccc5Cl)noc4C4CC4)cc3Cl)C2)c1	–	–	–	–	–	–	–	–	54.3%	-4.99%	3.34%	5.29%	35.5%	16.5%	97.2%	4.51%	–
CN(C)C(=O)Cn1cc(-c2nc([C@@](C)(c3ccc(-c4cnc(N)nc4)cc3)C3CC3)no2)cn1	54.5%	-7.71%	-2.79%	-9.18%	-4.49%	14.1%	41%	6.25%	–	–	–	–	–	–	–	–	–
CC[C@@H]1CN2C(=O)N(C)c3nc(-c4ccccc4)[nH]c3C2=N1	–	–	–	–	–	–	–	–	-6.99%	0.982%	-3.73%	7.79%	-8.56%	-6.04%	-6.27%	-9.41%	–
CNC(=O)c1cc(C(=O)N[C@H]2[C@@H]3COC[C@@H]32)cc2c1O[C@H](CF)[C@H]2c1ccccc1	–	–	–	–	–	–	–	–	47.2%	-1.35%	5.12%	-3.26%	4.16%	8.89%	40.6%	2.78%	–
Cn1cc(-c2ccc3occ(-c4ccccc4-c4ccccc4)c3n2)cn1	–	–	–	–	–	–	–	–	-2.48%	6.35%	1.31%	-8.28%	-7.06%	17.5%	33.2%	0.982%	–
CCCc1c(OCCCOc2ccc(OCC(=O)O)cc2)ccc(C(C)=O)c1O	–	–	–	–	–	–	–	–	63.2%	-2.56%	10.5%	3.31%	64.5%	4.9%	63%	2.04%	–
C=C1/C(=C\C=C2/CCC[C@]3(C)[C@@H]([C@H](C)/C=C/[C@H](C)C(C)C)CC[C@@H]23)C[C@@H](O)C[C@@H]1O	–	–	–	–	–	–	–	–	52.9%	-1.8%	-1.51%	0.685%	-5.13%	9.91%	47.8%	1.6%	–
Cc1cn([C@H](C)CC#N)c(=O)c2cc(Cn3nc(C(F)F)cc3Cl)nn12	–	–	–	–	–	–	–	–	55.5%	-8.77%	-2.27%	-5.89%	-5.53%	9.99%	31.2%	1.83%	–
Nc1nc(NCc2ccccc2)nc(-c2cccc(CO)c2)n1	–	–	–	–	–	–	–	–	54%	-6.05%	-1.51%	-5.89%	-2.67%	0.878%	32.3%	-0.892%	–
C[C@H](NC(=O)Cc1ccc(-c2ccc3cccnc3n2)cc1)c1ccc(-c2ccc(F)c(C(F)(F)F)c2)cc1	–	–	–	–	–	–	–	–	22.6%	7.12%	-4.68%	14.6%	5.81%	-7.59%	8.35%	-4.78%	–
CS(=O)(=O)c1cc(C2(NC(=O)c3cncc4c3cnn4-c3ccc(F)cc3)CC2)ccn1	53.3%	-0.745%	1.04%	0.0274%	-1.05%	7.38%	54.5%	0.429%	–	–	–	–	–	–	–	–	–
COc1cccc(Cn2cc(C(=O)Nc3ccc(C)c(S(=O)(=O)N4CCOCC4)c3)c(-c3ccc(C)cc3)n2)c1	–	–	–	–	–	–	–	–	52.8%	-9.23%	-7.38%	1.34%	11.1%	2.42%	97.5%	-6.33%	–
CCn1c(CNC(=O)c2ncc(C)nc2N)[n+](CC)c2ccc(C(=O)N(C)CCN(C)C)cc21	–	–	–	–	–	–	–	–	47.5%	-4.53%	1.3%	-6.55%	14.2%	1.28%	100%	-0.563%	–
Cc1ccc2nc(CNCCCOc3ccccc3)cc(O)c2c1	–	–	–	–	–	–	–	–	18.2%	0.467%	-8.14%	2%	11.7%	6.33%	34.3%	-1.26%	–
